Measured values from ChEMBL document CHEMBL1201862, “PubChem BioAssay data set” (2004).
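Growth conditions: 96-well plates. Treatment: test compound, 48 hours, 5 concentrations. Analysis: linear interpolation between bracketing concentrations; unreached endpoints set to highest concentration. GI50: concentration for 50% inhibition of growth.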 Activity calls are given as the source filed them. Rule as the data show it: active = GI50 up to about 1.1 µM and inactive = higher.

Columns and labels:
Assay in all cases: NCI tumour cell line growth inhibition, 48 h
SF-539 = test system: SF-539
HOP-62 = test system: HOP-62
SF-268 = test system: SF-268
OVCAR-8 = test system: OVCAR-8
EKVX = test system: EKVX
CCRF-CEM = test system: CCRF-CEM
HCT-15 = test system: HCT-15
SW-620 = test system: SW-620
SK-MEL-28 = test system: SK-MEL-28
OVCAR-3 = test system: OVCAR-3
IGROV-1 = test system: IGROV-1
COLO 205 = test system: COLO 205
KM12 = test system: KM12
HT-29 = test system: HT-29
NCI-H460 = test system: NCI-H460
SK-OV-3 = test system: SK-OV-3
UACC-257 = test system: UACC-257
HCT-116 = test system: HCT-116
SK-MEL-2 = test system: SK-MEL-2
RXF 393 = test system: RXF 393

Row | SMILES | GI50 (SF-539) | GI50 (HOP-62) | GI50 (SF-268) | GI50 (OVCAR-8) | GI50 (EKVX) | GI50 (CCRF-CEM) | GI50 (HCT-15) [µM] | GI50 (SW-620) | GI50 (SK-MEL-28) | GI50 (OVCAR-3) | GI50 (IGROV-1) | GI50 (COLO 205) | GI50 (KM12) | GI50 (HT-29) | GI50 (NCI-H460) | GI50 (SK-OV-3) | GI50 (UACC-257) | GI50 (HCT-116) | GI50 (SK-MEL-2) | GI50 (RXF 393)
1 | Fc1c(F)c(F)c(CSc2nc3ccccc3[nH]2)c(F)c1F | > 100 µM (inactive) | > 100 µM (inactive) | > 100 µM (inactive) | > 100 µM (inactive) | > 100 µM (inactive) | > 100 µM (inactive) | > 100 | > 100 µM (inactive) | > 100 µM (inactive) | > 100 µM (inactive) | > 100 µM (inactive) | > 100 µM (inactive) | > 100 µM (inactive) | > 100 µM (inactive) | > 100 µM (inactive) | > 100 µM (inactive) | > 100 µM (inactive) | > 100 µM (inactive) | > 100 µM (inactive) | > 100 µM (inactive)
2 | CCOC(=O)CNC(=O)C(CCC(=O)N(C)O)NC(=O)CCC(N)C(=O)O (configuration not stated) | > 100 µM (inactive) | > 100 µM (inactive) | > 100 µM (inactive) | > 100 µM (inactive) | > 100 µM (inactive) | > 100 µM (inactive) | > 100 | > 100 µM (inactive) | > 100 µM (inactive) | > 100 µM (inactive) | > 100 µM (inactive) | > 100 µM (inactive) | > 100 µM (inactive) | > 100 µM (inactive) | > 100 µM (inactive) | > 100 µM (inactive) | > 100 µM (inactive) | > 100 µM (inactive) | > 100 µM (inactive) | > 100 µM (inactive)
3 | CCOC(=O)c1csc(NC(=O)CCCC#N)n1 | > 100 µM (inactive) | > 100 µM (inactive) |  | > 100 µM (inactive) |  | > 100 µM (inactive) | > 100 | > 100 µM (inactive) | > 100 µM (inactive) | > 100 µM (inactive) |  | > 100 µM (inactive) | > 100 µM (inactive) | > 100 µM (inactive) | > 100 µM (inactive) | > 100 µM (inactive) | > 100 µM (inactive) |  | > 100 µM (inactive) | > 100 µM (inactive)
4 | Cc1ccc([N+](=O)[O-])cc1S(=O)(=O)Nc1ccc(C2=NNC(c3cccs3)C2)cc1 (configuration not stated) | 48.1 µM (inactive) | 24.3 µM (inactive) | 36.8 µM (inactive) | 54.2 µM (inactive) | 18.8 µM (inactive) | 20.2 µM (inactive) | 17 | 34.1 µM (inactive) | 48.5 µM (inactive) | 12.6 µM (inactive) | 58.9 µM (inactive) | 6.87 µM (inactive) | 16.5 µM (inactive) | 29.9 µM (inactive) | 25.4 µM (inactive) | 20.7 µM (inactive) | 26.9 µM (inactive) | 22.5 µM (inactive) | 33.7 µM (inactive) | 13.6 µM (inactive)
5 | Cn1c2c(c3ccccc31)CCN(CCCCN1CCCCC1)C2=O | > 100 µM (inactive) | > 100 µM (inactive) | 51.1 µM (inactive) | > 100 µM (inactive) | > 100 µM (inactive) | > 100 µM (inactive) | > 100 | > 100 µM (inactive) | 16.8 µM (inactive) | > 100 µM (inactive) | > 100 µM (inactive) | > 100 µM (inactive) |  | 61 µM (inactive) | > 100 µM (inactive) | > 100 µM (inactive) | 62.7 µM (inactive) | 84.5 µM (inactive) | > 100 µM (inactive) | > 100 µM (inactive)
6 | CC1(C)C2CCC3(OCCO3)C1C(O)C2 (configuration not stated) | > 100 µM (inactive) | > 100 µM (inactive) | > 100 µM (inactive) | > 100 µM (inactive) | > 100 µM (inactive) | > 100 µM (inactive) | > 100 | > 100 µM (inactive) | > 100 µM (inactive) | > 100 µM (inactive) | > 100 µM (inactive) |  | > 100 µM (inactive) | > 100 µM (inactive) | > 100 µM (inactive) |  | > 100 µM (inactive) | > 100 µM (inactive) | > 100 µM (inactive) | > 100 µM (inactive)
7 | CN(C)CCSc1nccc(-c2ccc(-c3ccnc(SCCN(C)C)n3)s2)n1 | 6.87 µM (inactive) | 15.9 µM (inactive) | 8.17 µM (inactive) | 6.1 µM (inactive) | 18.2 µM (inactive) | 1.43 µM (inactive) | 4.65 | 3.18 µM (inactive) | 19.1 µM (inactive) | 13.4 µM (inactive) | 12.6 µM (inactive) | 9.4 µM (inactive) | 4.91 µM (inactive) | 2.57 µM (inactive) | 3.01 µM (inactive) | 19.1 µM (inactive) | 16.7 µM (inactive) | 3.33 µM (inactive) | 13.6 µM (inactive) | 6.14 µM (inactive)
8 | C1CCC2(CC1)O[C@@H]1[C@@H](O2)[C@@H](O[C@H]2O[C@@H]3COC4(CCCCC4)O[C@H]3[C@@H]3OC4(CCCCC4)O[C@@H]23)O[C@@H]2COC3(CCCCC3)O[C@@H]12 | > 100 µM (inactive) | > 100 µM (inactive) | > 100 µM (inactive) | > 100 µM (inactive) | > 100 µM (inactive) | > 100 µM (inactive) |  | > 100 µM (inactive) | > 100 µM (inactive) | > 100 µM (inactive) | > 100 µM (inactive) | > 100 µM (inactive) | > 100 µM (inactive) | > 100 µM (inactive) |  | > 100 µM (inactive) | > 100 µM (inactive) | > 100 µM (inactive) | > 100 µM (inactive) | > 100 µM (inactive)
9 | CSC1NC(c2ccccc2)=C(C#N)C(=O)N1C1OCC(OC(C)=O)C(OC(C)=O)C1OC(C)=O (configuration not stated) | > 100 µM (inactive) | > 100 µM (inactive) | > 100 µM (inactive) | > 100 µM (inactive) | > 100 µM (inactive) |  | > 100 | > 100 µM (inactive) | > 100 µM (inactive) | > 100 µM (inactive) | > 100 µM (inactive) | > 100 µM (inactive) | > 100 µM (inactive) | > 100 µM (inactive) | > 100 µM (inactive) | > 100 µM (inactive) | > 100 µM (inactive) | 47.9 µM (inactive) |  | > 100 µM (inactive)
10 | COc1ccc2c(C)cc(N/N=C/c3sccc3C)nc2c1 | 14.3 µM (inactive) | 15.2 µM (inactive) | 17.4 µM (inactive) | 13.4 µM (inactive) | > 10 µM (inactive) | 39.8 µM (inactive) | 6.03 | 21.6 µM (inactive) | 14.8 µM (inactive) | 2.99 µM (inactive) | 5.82 µM (inactive) | 3.91 µM (inactive) | 8.05 µM (inactive) | 2.81 µM (inactive) |  | 17.1 µM (inactive) | 10.1 µM (inactive) | 4.08 µM (inactive) | 15.6 µM (inactive) | 14.9 µM (inactive)
11 | CCOC(=O)NC(=O)c1cn(CCSCCOC(=O)NCCCCCCNC(=O)OCCSCCn2cc(C(=O)NC(=O)OCC)c(=O)[nH]c2=O)c(=O)[nH]c1=O | > 100 µM (inactive) | > 100 µM (inactive) |  | > 100 µM (inactive) | > 100 µM (inactive) | > 100 µM (inactive) | > 100 | > 100 µM (inactive) | > 100 µM (inactive) | > 100 µM (inactive) | > 100 µM (inactive) | > 100 µM (inactive) |  | > 100 µM (inactive) | > 100 µM (inactive) | > 100 µM (inactive) | > 100 µM (inactive) | > 100 µM (inactive) |  | > 100 µM (inactive)
12 | CCOC1=C2N=C(Cc3ccc(F)cc3)NC2C(=O)c2ccccc21 (configuration not stated) | 13.3 µM (inactive) | 58.9 µM (inactive) |  | 20.6 µM (inactive) | 23.2 µM (inactive) | 8.26 µM (inactive) |  |  | 27.5 µM (inactive) | 18.6 µM (inactive) | 66.7 µM (inactive) | 23.3 µM (inactive) | 27.5 µM (inactive) | 21.1 µM (inactive) | 12.6 µM (inactive) | 38.2 µM (inactive) | 7.91 µM (inactive) | > 10 µM (inactive) | 17.6 µM (inactive) | 18.3 µM (inactive)
13 | COc1nc(N)nc2nc[nH]c12 | 495 µM (inactive) | 172 µM (inactive) | 435 µM (inactive) | > 500 µM (inactive) | > 387 µM (inactive) | 331 µM (inactive) | 445 | > 500 µM (inactive) | > 419 µM (inactive) | 497 µM (inactive) | 239 µM (inactive) | 393 µM (inactive) | > 500 µM (inactive) | 495 µM (inactive) | 430 µM (inactive) | 129 µM (inactive) | 486 µM (inactive) | 463 µM (inactive) | 460 µM (inactive) | 313 µM (inactive)
14 | NC1(C(=O)O)CCc2ccc(N(CCCl)CCCl)cc2C1 (configuration not stated) | 34.5 µM (inactive) | 22.4 µM (inactive) | 24.3 µM (inactive) | > 100 µM (inactive) | > 100 µM (inactive) | 5.32 µM (inactive) | > 100 | > 100 µM (inactive) | > 100 µM (inactive) | > 100 µM (inactive) | > 100 µM (inactive) | > 100 µM (inactive) | > 100 µM (inactive) | > 100 µM (inactive) | 10.2 µM (inactive) | > 100 µM (inactive) | > 100 µM (inactive) | 0.01 µM (active) | 38.7 µM (inactive) | > 100 µM (inactive)
